Experimental data from paper PMC6770154, “A Multi-Biochemical and In Silico Study on Anti-Enzymatic Actions of Pyroglutamic Acid against PDE-5, ACE, and Urease Using Various Analytical Techniques: Unexplored Pharmacological Properties and Cytotoxicity Evaluation” (Biomolecules, 2019).

Columns and labels:
[1] = target: human angiotensin-converting enzyme (ACE) (Homo sapiens, UniProt P12821); test: spectrophotometric hippuric acid formation, % inhibition at […]; assay type: biochemical
Jack bean urease (JBU) = Jack bean urease (JBU) (Canavalia ensiformis, UniProt P07374); test: ESI-MS monitoring of urea depletion; assay type: biochemical
Jack bean urease (JBU), sequence (P07374 whole entry, looked up): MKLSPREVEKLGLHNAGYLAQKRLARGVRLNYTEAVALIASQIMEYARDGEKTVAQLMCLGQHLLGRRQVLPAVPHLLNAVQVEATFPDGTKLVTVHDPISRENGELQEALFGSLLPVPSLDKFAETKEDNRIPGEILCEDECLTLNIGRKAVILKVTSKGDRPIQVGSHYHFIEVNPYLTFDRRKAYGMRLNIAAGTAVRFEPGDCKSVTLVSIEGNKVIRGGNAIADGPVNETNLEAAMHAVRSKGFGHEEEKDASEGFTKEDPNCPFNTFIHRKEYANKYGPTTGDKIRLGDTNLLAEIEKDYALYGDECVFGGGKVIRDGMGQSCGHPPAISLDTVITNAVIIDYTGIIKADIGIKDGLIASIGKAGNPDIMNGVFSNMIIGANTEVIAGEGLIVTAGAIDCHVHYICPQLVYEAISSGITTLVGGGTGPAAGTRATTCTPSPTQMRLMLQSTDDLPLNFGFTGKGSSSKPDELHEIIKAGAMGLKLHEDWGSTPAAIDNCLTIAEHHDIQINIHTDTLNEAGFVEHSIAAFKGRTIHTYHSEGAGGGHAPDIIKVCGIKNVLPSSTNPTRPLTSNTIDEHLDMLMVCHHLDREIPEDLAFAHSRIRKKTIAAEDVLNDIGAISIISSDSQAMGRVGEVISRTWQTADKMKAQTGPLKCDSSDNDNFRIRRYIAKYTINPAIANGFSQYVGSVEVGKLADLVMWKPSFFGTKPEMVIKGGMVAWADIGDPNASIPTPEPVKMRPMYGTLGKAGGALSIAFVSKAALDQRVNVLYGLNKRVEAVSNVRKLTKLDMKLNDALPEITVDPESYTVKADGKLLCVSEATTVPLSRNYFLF

[2] = target: T1, phosphodiesterase-5A1 (PDE5A1) (Homo sapiens, UniProt O76074); test: biochemical
T1 construct: gene PDE5A

human angiotensin-converting enzyme (ACE), sequence (P12821 30-1306): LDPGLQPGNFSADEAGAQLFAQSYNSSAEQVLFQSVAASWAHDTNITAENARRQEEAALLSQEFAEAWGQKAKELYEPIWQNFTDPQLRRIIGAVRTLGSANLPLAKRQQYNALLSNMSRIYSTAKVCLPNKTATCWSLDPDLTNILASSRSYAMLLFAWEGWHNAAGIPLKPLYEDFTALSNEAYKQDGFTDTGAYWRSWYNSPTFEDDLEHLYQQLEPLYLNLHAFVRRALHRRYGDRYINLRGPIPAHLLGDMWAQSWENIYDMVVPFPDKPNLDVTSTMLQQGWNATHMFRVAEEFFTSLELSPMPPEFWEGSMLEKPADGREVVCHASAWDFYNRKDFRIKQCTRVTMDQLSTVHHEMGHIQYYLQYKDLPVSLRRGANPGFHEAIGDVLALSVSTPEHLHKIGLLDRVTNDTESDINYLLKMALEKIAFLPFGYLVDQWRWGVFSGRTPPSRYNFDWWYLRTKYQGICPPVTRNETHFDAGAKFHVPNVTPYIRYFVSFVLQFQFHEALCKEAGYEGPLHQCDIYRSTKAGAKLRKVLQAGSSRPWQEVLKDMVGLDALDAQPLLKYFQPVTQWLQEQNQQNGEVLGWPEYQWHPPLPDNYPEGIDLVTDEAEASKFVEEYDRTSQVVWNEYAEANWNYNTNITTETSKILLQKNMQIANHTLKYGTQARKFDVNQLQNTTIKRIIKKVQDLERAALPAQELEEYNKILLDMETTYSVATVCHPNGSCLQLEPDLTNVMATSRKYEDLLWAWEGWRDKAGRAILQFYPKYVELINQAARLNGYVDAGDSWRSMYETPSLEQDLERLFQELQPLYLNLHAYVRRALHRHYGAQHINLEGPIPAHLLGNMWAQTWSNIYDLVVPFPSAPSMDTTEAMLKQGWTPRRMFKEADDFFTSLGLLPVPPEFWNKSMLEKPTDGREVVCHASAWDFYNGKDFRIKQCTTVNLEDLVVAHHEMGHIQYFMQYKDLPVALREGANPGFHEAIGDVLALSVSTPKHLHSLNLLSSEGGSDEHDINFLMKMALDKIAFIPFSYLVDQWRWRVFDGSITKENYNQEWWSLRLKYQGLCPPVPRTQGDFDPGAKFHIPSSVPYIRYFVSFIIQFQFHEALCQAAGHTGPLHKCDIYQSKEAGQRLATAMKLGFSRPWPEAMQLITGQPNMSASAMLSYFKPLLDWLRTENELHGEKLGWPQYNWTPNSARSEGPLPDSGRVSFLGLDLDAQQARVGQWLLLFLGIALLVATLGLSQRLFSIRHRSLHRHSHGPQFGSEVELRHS

SMILES	inhibition at 20 µg/mL [1] [%]	IC50 (Jack bean urease (JBU)) [µM]	IC50 [2] [µM]
O=C1CC[C@@H](C(=O)O)N1 [pGlu, pyroglutamic acid]	98.2 ± 1.12	1.8	5.23 ± 1.33
CC(=O)NO [AHA, acetohydroxamic acid, reference compound]	–	3.9	–
